Test results reported in patent US20120039822A1, “DESENSITIZING DENTIFRICE” (priority 2009, published 2012).

Assay: Solubility of triclosan in aqueous solutions, filtration methodology (filtrate analyzed for triclosan)
Type: physicochemical
Method: In the first set of experiments, the solubility of triclosan in the presence/ absence of KCl was measured using a filtration methodology in which the filtrate was analyzed for triclosan.
In the following experiments, triclosan solubility was measured with increasing concentrations of hydroxypropyl-beta-cyclodextrin (no SLS, no KCl).
In the next experiments, triclosan solubility was measured in the presence of hydroxypropyl-beta-cyclodextrin along with SLS and KCl.

Oc1cc(Cl)ccc1Oc1ccc(Cl)cc1Cl [Triclosan, 2,4,4′-trichloro-2′-hydroxy-diphenyl ether]
Appearance (0% SLS - 0% (control)): Suspension and no precipitate
Appearance (1.5% SLS - 0% KCl): Suspension and no precipitate
Appearance (1.5% SLS - 3.75% KCl): Turbid and thick precipitate
Triclosan solubility, % (Table 3, 0% SLS - 0% (control)): 0.012%
Triclosan solubility, % (Table 3, 1.5% SLS - 0% KCl): 0.330%
Triclosan solubility, % (Table 3, 1.5% SLS - 0% KCl, listed as triclosan): increased the solubility
Triclosan solubility, % (Table 3, 1.5% SLS - 3.75% KCl): 0.110%
Triclosan solubility, % (Table 3, 1.5% SLS - 3.75% KCl, listed as triclosan): decreased solubility
Triclosan solubility, % (Table 4, 0% HPβCD in water (no SLS, no KCl)): 0.012%
Triclosan solubility, % (Table 4, 10% HPβCD in water (no SLS, no KCl)): 0.510%
Triclosan solubility, % (Table 4, 15% HPβCD in water (no SLS, no KCl)): 0.680%
Triclosan solubility, % (Table 4, 20% HPβCD in water (no SLS, no KCl)): 0.710%
Triclosan solubility, % (Table 5, 0% SLS): 0.012%
Triclosan solubility, % (Table 5, 1.5% SLS - 3.75% KCl): 0.011%
Triclosan solubility, % (Table 5, 1.5% SLS - 3.75 KCl - 10% HPbCD): 0.190%
Triclosan solubility, % (Table 5, 1.5% SLS - 3.75 KCl - 20% HPbCD): 0.380%
triclosan solubility with increasing concentrations of hydroxypropyl-beta-cyclodextrin (no SLS, no KCl): increased in a dose-dependent manner
triclosan solubility in the presence of hydroxypropyl-beta-cyclodextrin along with SLS and KCl (with SLS and KCl): increased solubility
